Data reported in patent publication US10184118B2, “Cytochrome P450S and uses thereof” (University of Kentucky Research Foundation, priority 2001, dated 2019).
Where two headings read alike, the source gives them in different places.

Assays:
CYP71D20 = settings: 20 to 50 μM substrate, 2 mM NADPH, 1 mg/mL microsomal protein, 30° C.
Protocol: Reactions were carried out in 100 mM Tris-HCl, pH 7.5, to which microsomal protein was added to a final concentration of 1 mg/mL. Reactions were initiated by the addition of 2 mM NADPH. […] After incubations for variable lengths of time at 30° C., the reactions were extracted with two volumes of ethyl acetate. […] GC analysis was routinely performed with an HP5890 GC equipped with a Hewlett-Packard HP-5 capillary column (30 m×0.25 mm, 0.25 μm phase thickness) and FID as described previously (Rising et al., J. Am. Chem. Soc. 122:1861-1866, 2000). GC-MS analysis was performed at the University of Kentucky Mass Spectrometry Facility using a Varian 3400 gas chromatograph and a Finnigan INCOS 50 quadrupole mass selective detector. The GC was equipped with a J&W DB-5 ms capillary column (15 m×0.25 mm, 0.25 μm phase thickness) and run with He as the carrier gas (10 psi.). Splitless injections were done at an injection port temperature of 280° C. The column temperature was maintained at 40° C. for 1 minute and then increased to 280° C. at 10° C. per minute. Following separation by the GC column, samples were introduced directly into the electron impact ionization source. Mass spectra were acquired at 70 eV, scanning from 40-440 Da in 1 second.

[1] = test system: 3-hydroxylase (5-epi-aristolochene to 1-deoxycapsidiol); settings: cited from earlier work
[2] = test system: 5-epi-aristolochene hydroxylase (5EAH)
Protocol: (§1) The hexane solvent was removed under a gentle stream of N2 gas, and the dried residue was re-dissolved in acetone. […] Detection and quantification of capsidiol in the extracellular culture media was performed as reported previously (Chappell et al., Phytochemistry 26:2259-2260, 1987), and the amount of radioactivity incorporated into capsidiol was determined. For these determinations, samples were separated by TLC, and the zones corresponding to capsidiol were scraped from the plate for scintillation counting.
(§2) Inhibition studies were performed by the addition of the P450 inhibitors ancymidol (Coolbaugh et al., Plant Physiol. 62:571-576, 1978; Hoshino et al., Phytochemistry 38:609-613, 1995) and ketoconazole (Hoshino et al., Phytochemistry 38:609-613, 1995; Rademacher, Annu. Rev. Plant Physiol. Plant Mol. Biol. 51:501-531, 2000) directly to the cell cultures or enzyme assay mix. […] After a further 3 hour incubation period, the cells and media were collected. The amount of radioactivity incorporated into extracellular capsidiol was determined as described above. To evaluate secondary effects of these inhibitors, the level of inducible sesquiterpene cyclase activity in the collected cells was determined according to Vogeli et al. (Plant Physiol. 93:182-187, 1990), as well as in vitro assays with purified recombinant EAS (Back et al., Arch. Biochem. Biophys. 315:527-532, 1994) incubated with the indicated concentrations of ancymidol and ketoconazole.

[3] = test system: induction of EAS in elicitor-treated cell cultures; assay: Inducible sesquiterpene cyclase (EAS) activity in extracts of elicitor-treated cells; format: cell-based, Nicotiana tabacum; settings: 12 h with cellulase
[4] = molecular target: T1, 5-epi-aristolochene synthase (EAS) (Nicotiana tabacum, UniProt Q40577); assay: In vitro activity of purified recombinant EAS with inhibitors; format: biochemical
T1 construct: made in house
T1 sequence (Q40577 1-548): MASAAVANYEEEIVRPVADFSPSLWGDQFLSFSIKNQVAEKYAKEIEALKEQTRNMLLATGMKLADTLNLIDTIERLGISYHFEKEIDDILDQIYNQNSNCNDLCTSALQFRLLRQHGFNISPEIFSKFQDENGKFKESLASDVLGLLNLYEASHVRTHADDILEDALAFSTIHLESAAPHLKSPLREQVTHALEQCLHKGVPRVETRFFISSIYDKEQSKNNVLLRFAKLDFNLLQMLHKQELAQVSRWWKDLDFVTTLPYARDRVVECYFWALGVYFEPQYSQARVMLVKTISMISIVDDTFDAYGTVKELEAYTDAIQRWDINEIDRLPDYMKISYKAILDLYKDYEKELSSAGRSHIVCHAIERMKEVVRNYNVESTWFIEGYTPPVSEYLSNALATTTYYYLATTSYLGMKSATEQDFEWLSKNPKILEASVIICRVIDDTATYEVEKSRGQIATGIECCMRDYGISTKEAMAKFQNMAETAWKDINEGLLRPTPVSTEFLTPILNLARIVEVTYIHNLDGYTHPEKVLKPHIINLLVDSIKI
Protocol: The in vitro activity of a purified EAS preparation (Back and Chappell, J. Biol. Chem. 270:7375-7381, 1995) was also measured at the indicated inhibitor concentrations as an additional test for non-specific effects of these inhibitors (circles).

[5] = test system: 5-epi-aristolochene hydroxylase (5EAH); assay: In vivo 5-epi-aristolochene hydroxylase assay in elicitor-treated tobacco cell suspension cultures; settings: Nicotiana tabacum, read-out: inhibition of apparent activity of 5EAH
Protocol: as §1, §2

[6] = microsomes incubated with 5-epi-aristolochene
[7] = concentrations as high as 100 μM

In the case of C=C(C)[C@@H]1CC=C2CC[C@@H](O)[C@@H](C)[C@@]2(C)C1 [1-deoxycapsidiol], the “metabolism by CYP71D20 microsomes (GC, GC-MS of products)” value (CYP71D20) is reported as “metabolized to only one product with the same retention time as capsidiol”.
In the case of CC(=O)N1CCN(c2ccc(OCC3COC(Cn4ccnc4)(c4ccc(Cl)cc4Cl)O3)cc2)CC1 (stereo not shown) [ketoconazole], the “effect on 1-deoxycapsidiol accumulation in vitro” value [1] is given as “arrested”, the inhibition ([2]; 25 µM) is given as ~50% and the inhibition ([2]; 100 µM) is given as 95%. The “concentration at which inducibility of cyclase activity in elicitor-treated cell extracts was inhibited” value [3] was “above 50 μM” and the “effect on in vitro activity of EAS” value ([4]; indicated inhibitor concentrations (FIG. 3B)) was “does not appear to affect”.
In the case of [C-]#[O+] [carbon monoxide], the “effect on 1-deoxycapsidiol accumulation in vitro” value [1, 6] is given as “arrested”.
For COc1ccc(C(O)(c2cncnc2)C2CC2)cc1 (stereo not shown) [ancymidol], the “effect on 1-deoxycapsidiol accumulation in vitro” value [1, 6] is given as “arrested”, the inhibition ([2]; 25 µM) is given as ~50% and the “effect on induction of EAS in elicitor-treated cell cultures” value [3, 7] is given as “neither the in vitro activity of recombinant EAS nor the induction of EAS in the elicitor-treated cell cultures was significantly affected”. The “effect on in vitro activity of recombinant EAS” value [4, 7] was “neither the in vitro activity of recombinant EAS nor the induction of EAS in the elicitor-treated cell cultures was significantly affected” and the inhibition at 75 µM [5] was > 80%.
In the case of C=C(C)[C@@H]1CC=C2CCC[C@@H](C)[C@@]2(C)C1 [5-epi-aristolochene], the “metabolism by CYP71D20 microsomes (GC, GC-MS of products)” value (CYP71D20) is reported as “metabolized to only one product with the same retention time as capsidiol”.
